Source: patent publication US20160194299A1 (priority 2013, published 2016)
Values after ≈ are worked out from the molar mass of the structure shown. Read-outs that look alike come from different tables or passages of the source.

Tests used:
[1] = test system: Mtb; test: microbe, parasite or virus in culture; format: cell-based, Mycobacterium tuberculosis; settings: Mycobacterium tuberculosis, read-out: MIC (III)
[2] = test system: Mtb; test: microbe, parasite or virus in culture; format: cell-based, Mycobacterium tuberculosis; settings: Mycobacterium tuberculosis, read-out: MIC (I)
[3] = in vitro; settings: African green monkey

| SMILES | MIC [1] | MIC [2] | CC50 [3] |
| --- | --- | --- | --- |
| CCOC(=O)NC(=O)c1cc(F)sc1NC(=O)c1cnc2ccnn2c1 [Compound 341] | > 25 µg/mL | < 1 µg/mL | 25 to 50 µg/mL (≈ 66.3 to 133 µM) |
| CCOC(=O)NC(=O)c1ccsc1NC(=O)c1ccnc(NC(=O)N2CCC(F)(F)CC2)c1 [Compound 50] | > 25 µg/mL | < 1 µg/mL | 25 to 50 µg/mL (≈ 51.9 to 104 µM) |
| O=C(NC(=O)c1ccsc1NC(=O)c1cnc2ccnn2c1)OCc1ccc(F)cc1 [Compound 284] | > 25 µg/mL | > 3 µg/mL | 25 to 50 µg/mL (≈ 56.9 to 114 µM) |
| CCOC(=O)NC(=O)c1ccsc1NC(=O)c1cn2ncccc2n1 [Compound 93] | < 5 µg/mL | < 1 µg/mL | > 50 µg/mL |
| CC(C)OC(=O)NC(=O)c1cc(F)sc1NC(=O)c1cc2ncccn2n1 [Compound 345] | > 25 µg/mL | < 1 µg/mL | 25 to 50 µg/mL (≈ 63.9 to 128 µM) |
| CCOC(=O)NC(=O)c1ccsc1NC(=O)c1ccc2cnccc2c1 [Compound 145] | > 25 µg/mL | > 3 µg/mL | > 50 µg/mL |
| CCOC(=O)NC(=O)c1ccsc1NC(=O)c1ccnc(NC(=O)N2CCS(=O)(=O)CC2)c1 [Compound 47] | > 25 µg/mL | < 1 µg/mL | > 50 µg/mL |
| CC(C)OC(=O)NC(=O)c1ccsc1NC(=O)c1ccn2nccc2c1 [Compound 317] | > 25 µg/mL | < 1 µg/mL | < 25 µg/mL |
| CCOC(=O)NC(=O)c1ccsc1NC(=O)c1ccc2c(c1)CCO2 [Compound 132] | 5 to 25 µg/mL (≈ 13.9 to 69.4 µM) | > 3 µg/mL | > 50 µg/mL |
| CC(C)COC(=O)NC(=O)c1ccsc1NC(=O)c1nc2cnccc2s1 [Compound 282] | > 25 µg/mL | > 3 µg/mL | 25 to 50 µg/mL (≈ 61.8 to 124 µM) |
| CC(C)OC(=O)NC(=O)c1ccsc1NC(=O)c1cnc2ccnn2c1 [Compound 298] | < 5 µg/mL | < 1 µg/mL | < 25 µg/mL |
| CCOC(=O)NC(=O)c1cc(F)sc1NC(=O)c1nc2cnccc2s1 [Compound 337] | > 25 µg/mL | < 1 µg/mL | 25 to 50 µg/mL (≈ 63.4 to 127 µM) |
| O=C(NC(=O)c1cc(F)sc1NC(=O)c1nc2ccccc2s1)OCCN1CCOCC1 [Compound 388] | > 25 µg/mL | < 1 µg/mL | < 25 µg/mL |
| CCOC(=O)NC(=O)c1ccsc1NC(=O)c1cc(NC(=O)C(C)(C)C)ncn1 [Compound 36] | > 25 µg/mL | 1 to 3 µg/mL (≈ 2.38 to 7.15 µM) | > 50 µg/mL |
| CC(C)OC(=O)NC(=O)c1ccsc1NC(=O)c1cc2c(F)cccc2s1 [Compound 330] | 5 to 25 µg/mL (≈ 12.3 to 61.5 µM) | < 1 µg/mL | < 25 µg/mL |
| CCOC(=O)NC(=O)c1ccsc1NC(=O)c1ccc2cccnc2n1 [Compound 69] | < 5 µg/mL | < 1 µg/mL | < 25 µg/mL |
| CCOC(=O)NC(=O)c1ccsc1NC(=O)c1cncn1C [Compound 263] | > 25 µg/mL | > 3 µg/mL | > 50 µg/mL |
| CC(C)OC(=O)NC(=O)c1cc(F)sc1NC(=O)c1cn2ccccc2n1 [Compound 339] | > 25 µg/mL | < 1 µg/mL | 25 to 50 µg/mL (≈ 64 to 128 µM) |
| O=C(NC(=O)c1ccsc1NC(=O)c1nc2cccnc2s1)OCc1ccccc1C(F)(F)F [Compound 288] | 5 to 25 µg/mL (≈ 9.87 to 49.4 µM) | > 3 µg/mL | < 25 µg/mL |
| CC(C)OC(=O)NC(=O)c1ccsc1NC(=O)c1nc2ncccc2s1 [Compound 390] | > 25 µg/mL | < 1 µg/mL | < 25 µg/mL |
| CC(C)OC(=O)NC(=O)c1ccsc1NC(=O)c1cc2ccccn2n1 [Compound 352] | > 25 µg/mL | < 1 µg/mL | 25 to 50 µg/mL (≈ 67.1 to 134 µM) |

| SMILES | MIC [1] | MIC [2] | CC50 [3] |
| --- | --- | --- | --- |
| CC(=O)N1CCC(OC(=O)NC(=O)c2ccsc2NC(=O)c2cn3ccccc3n2)CC1 [Compound 375] | > 25 µg/mL | > 3 µg/mL | 25 to 50 µg/mL (≈ 54.9 to 110 µM) |
| O=C(Nc1sccc1C(=O)NC1CCNCC1)c1nc2ccccc2s1 [Compound 259] | > 25 µg/mL | > 3 µg/mL | > 50 µg/mL |
| CCOC(=O)NC(=O)c1ccsc1NC(=O)c1sc(-c2ccncc2)nc1C [Compound 135] | > 25 µg/mL | > 3 µg/mL | > 50 µg/mL |
| CCOC(=O)NC(=O)c1cc(CC(C(=O)OCC)C(=O)OCC)sc1NC(=O)c1nc2cnccc2s1 [Compound 278] | > 25 µg/mL | > 3 µg/mL | > 50 µg/mL |
| CCOC(=O)NC(=O)c1ccsc1NC(=O)/C=C/c1ccncc1 [Compound 356] | > 25 µg/mL | > 3 µg/mL | 25 to 50 µg/mL (≈ 72.4 to 145 µM) |
| CCOC(=O)NC(=O)c1ccsc1NC(=O)c1ccc2ncoc2c1 [Compound 75] | > 25 µg/mL | > 3 µg/mL | > 50 µg/mL |
| CCOC(=O)NC(=O)c1ccsc1NC(=O)c1cnc2ccccn12 [Compound 142] | > 25 µg/mL | > 3 µg/mL | 25 to 50 µg/mL (≈ 69.8 to 140 µM) |
| CCOC(=O)NC(=O)c1ccsc1NC(=O)/C=C/c1nc2ccccc2s1 [Compound 365] | > 25 µg/mL | < 1 µg/mL | < 25 µg/mL |
| CC(C)COC(=O)NC(=O)c1ccsc1NC(=O)c1cnc2ccnn2c1 [Compound 283] | > 25 µg/mL | 1 to 3 µg/mL (≈ 2.58 to 7.74 µM) | 25 to 50 µg/mL (≈ 64.5 to 129 µM) |
| CCOC(=O)NC(=O)c1ccsc1NC(=O)c1nc2ccccc2o1 [Compound 396] | > 25 µg/mL | < 1 µg/mL | < 25 µg/mL |
| CC(C)OC(=O)NC(=O)c1cc(F)sc1NC(=O)c1ccn2nccc2c1 [Compound 346] | > 25 µg/mL | 1 to 3 µg/mL (≈ 2.56 to 7.68 µM) | < 25 µg/mL |
| C#CCOC(=O)NC(=O)c1ccsc1NC(=O)c1nc2cnccc2s1 [Compound 100] | > 25 µg/mL | < 1 µg/mL | 25 to 50 µg/mL (≈ 64.7 to 129 µM) |
| CCOC(=O)NC(=O)c1ccsc1NC(=O)c1cnc(OC)cn1 [Compound 127] | > 25 µg/mL | > 3 µg/mL | > 50 µg/mL |
| CCOC(=O)NC(=O)c1ccsc1NC(=O)c1ccc2nccnc2c1 [Compound 398] | 5 to 25 µg/mL (≈ 13.5 to 67.5 µM) | < 1 µg/mL | < 25 µg/mL |
| CCOC(=O)NC(=O)c1ccsc1NC(=O)c1nc2c(N(C)C)nccc2s1 [Compound 270] | > 25 µg/mL | < 1 µg/mL | > 50 µg/mL |
| CCOC(=O)NC(=O)c1ccsc1NC(=O)c1csc(C(F)(F)F)n1 [Compound 131] | 5 to 25 µg/mL (≈ 12.7 to 63.6 µM) | > 3 µg/mL | < 25 µg/mL |
| CCOC(=O)NC(=O)c1ccsc1NC(=O)c1ccc2sc(N3CCN(C)CC3)nc2c1 [Compound 59] | 5 to 25 µg/mL (≈ 10.6 to 52.8 µM) | < 1 µg/mL | > 50 µg/mL |
| CC(C)OC(=O)NC(=O)c1ccsc1NC(=O)/C=C/c1nc2ccccc2s1 [Compound 366] | 5 to 25 µg/mL (≈ 12 to 60.2 µM) | < 1 µg/mL | < 25 µg/mL |
| CCOC(=O)NC(=O)c1ccsc1NC(=O)c1cnc2cc(C)nn2c1C [Compound 65] | < 5 µg/mL | < 1 µg/mL | > 50 µg/mL |
| O=C(NC(=O)c1ccsc1NC(=O)c1nc2ccccc2s1)OCCOCc1ccccc1 [Compound 371] | 5 to 25 µg/mL (≈ 10.4 to 51.9 µM) | < 1 µg/mL | < 25 µg/mL |
| CCOC(=O)NC(=O)c1ccsc1NC(=O)c1ccc2ncccc2c1 [Compound 89] | 5 to 25 µg/mL (≈ 13.5 to 67.7 µM) | 1 to 3 µg/mL (≈ 2.71 to 8.12 µM) | > 50 µg/mL |

| SMILES | MIC [1] | MIC [2] | CC50 [3] |
| --- | --- | --- | --- |
| CCOC(=O)NC(=O)c1cc(F)sc1NC(=O)c1ccc2nccn2n1 [Compound 387] | > 25 µg/mL | 1 to 3 µg/mL (≈ 2.65 to 7.95 µM) | < 25 µg/mL |
| CCOC(=O)NC(=O)c1ccsc1NC(=O)c1cn2cccc(C#N)c2n1 [Compound 124] | < 5 µg/mL | > 3 µg/mL | > 50 µg/mL |
| CCOC(=O)NC(=O)c1cc(CC(=O)O)sc1NC(=O)c1nc2cnccc2s1 [Compound 308] | > 25 µg/mL | > 3 µg/mL | < 25 µg/mL |
| CCOC(=O)NC(=O)c1ccsc1NC(=O)C1=NNC(=O)CC1 [Compound 64] | < 5 µg/mL | < 1 µg/mL | > 50 µg/mL |
| CCOC(=O)NC(=O)c1ccsc1NC(=O)c1cnc(O)cn1 [Compound 129] | > 25 µg/mL | > 3 µg/mL | > 50 µg/mL |
| CCOC(=O)NC(=O)c1ccsc1NC(=O)c1ccc2sc(N3CCOCC3)nc2c1 [Compound 58] | 5 to 25 µg/mL (≈ 10.9 to 54.3 µM) | < 1 µg/mL | > 50 µg/mL |
| CCOC(=O)NC(=O)c1ccsc1NC(=O)c1ccc2nccn2n1 [Compound 77] | > 25 µg/mL | 1 to 3 µg/mL (≈ 2.78 to 8.35 µM) | > 50 µg/mL |
| CCOC(=O)NC(=O)c1ccsc1NC(=O)c1cnc2ccccc2n1 [Compound 87] | < 5 µg/mL | < 1 µg/mL | > 50 µg/mL |
| COC(=O)NC(=O)c1ccsc1NC(=O)c1nc2cnccc2s1 [Compound 314] | > 25 µg/mL | > 3 µg/mL | 25 to 50 µg/mL (≈ 69 to 138 µM) |
| O=C(NC(=O)c1ccsc1NC(=O)c1cnc2ccnn2c1)OCCC(F)(F)F [Compound 322] | > 25 µg/mL | > 3 µg/mL | < 25 µg/mL |
| CCOC(=O)NC(=O)c1ccsc1NC(=O)c1cc2nc(C)cc(C)n2n1 [Compound 121] | > 25 µg/mL | > 3 µg/mL | > 50 µg/mL |
| CCOC(=O)NC(=O)c1ccsc1NC(=O)c1cnc2ccoc2c1 [Compound 353] | > 25 µg/mL | 1 to 3 µg/mL (≈ 2.78 to 8.35 µM) | 25 to 50 µg/mL (≈ 69.6 to 139 µM) |
| CC(C)OC(=O)NC(=O)c1cc(F)sc1NC(=O)c1nc2ncccc2s1 [Compound 391] | > 25 µg/mL | < 1 µg/mL | < 25 µg/mL |
| CCOC(=O)NC(=O)c1cc(C(=O)OCC)sc1NC(=O)c1nc2cnccc2s1 [Compound 279] | > 25 µg/mL | > 3 µg/mL | 25 to 50 µg/mL (≈ 55.7 to 111 µM) |
| CCOC(=O)NC(=O)c1ccsc1NC(=O)c1cc2ccccc2s1 [Compound 90] | < 5 µg/mL | < 1 µg/mL | 25 to 50 µg/mL (≈ 66.8 to 134 µM) |
| O=C(Nc1sccc1C(=O)NC(=O)N1CCOCC1)c1nc2cnccc2s1 [Compound 386] | > 25 µg/mL | > 3 µg/mL | < 25 µg/mL |
| CCOC(=O)NC(=O)c1ccsc1NC(=O)c1nc(S(C)(=O)=O)ncc1Cl [Compound 126] | > 25 µg/mL | > 3 µg/mL | < 25 µg/mL |
| CCOC(=O)N(C)C(=O)c1ccsc1NC(=O)c1cn2ccccc2n1 [Compound 377] | > 25 µg/mL | > 3 µg/mL | 25 to 50 µg/mL (≈ 67.1 to 134 µM) |
| CCOC(=O)NC(=O)c1ccsc1NC(=O)c1ccnc2ccc(OC)cc12 [Compound 123] | 5 to 25 µg/mL (≈ 12.5 to 62.6 µM) | > 3 µg/mL | > 50 µg/mL |
